According to ChEMBL document CHEMBL1132661, “Synthesis and preliminary biological evaluation of new alpha-amino amide anticonvulsants incorporating a dextromethorphan moiety” (Bioorg Med Chem Lett, 1999):

Experiments:
[1] = target: T1, Sodium channel alpha subunits; brain (Types I, II, III) (Rattus norvegicus, UniProt P04775+P04774+P08104); assay: Binding of [3H]batrachotoxin (BTX) to rat brain sodium channel
[2] = Therapeutic index TI (ED50 rotorod/MES) of the compound; settings: mouse; read-out: TI
Mus musculus [3] = assay: Psychomotor side-effect in mice by rotarod test by intraperitoneal administration at 60 mins; type: functional; settings: ip, 1 h
Mus musculus [4] = assay: Anticonvulsant activity in mice by intraperitoneal administration measured at 30 mins before maximum electroshock seizure induction; type: functional; settings: ip
Mus musculus [5] = assay: Anticonvulsant activity in mice by peroral administration measured at 60 mins before maximum electroshock seizure induction; type: functional; settings: po
[6] = target: T1, Sodium channel alpha subunits; brain (Types I, II, III); assay: Binding of [3H]saxitoxin (STX) to rat brain sodium channel
[7] = Significant mortality was observed in mice caused by the compound; type: ADME; settings: mouse, in vivo

| SMILES | IC50 [1] [µM] | selectivity ratio [2] | ED50 (Mus musculus [3]) [mg/kg] | ED50 (Mus musculus [4]) [mg/kg] | ED50 (Mus musculus [5]) [mg/kg] | IC50 [6] [µM] | LD50 [7] [mg/kg] |
| --- | --- | --- | --- | --- | --- | --- | --- |
| C[C@H](C(N)=O)N1CCC23CCCCC2[C@@H]1Cc1ccc(OCc2cccc(F)c2)cc13 (stereo partly specified) | 2.6 | 10 | 176 | 18.1 | 50.8 | > 300 | – |
| CNC(=O)[C@@H](C)N1CCC23CCCCC2[C@@H]1Cc1ccc(OCc2cccc(F)c2)cc13 (stereo partly specified) | 5.3 | 4 | 152 | 41.6 | – | > 300 | – |
| COc1ccc2c(c1)C13CCCCC1C(C2)N(C)CC3 (stereo not drawn) [RACEMETHORPHAN] | 1.3 | – | – | 10.1 | 12.9 | > 300 | 234 |
| CS(=O)(=O)O.C[C@H](NCc1ccc(OCc2cccc(F)c2)cc1)C(N)=O [SAFINAMIDE MESYLATE] | – | 78 | 626 | 6.9 | 8 | > 300 | – |
